Experimental data published in patent US8513248B2, “5,6,7,8-tetrahydroimidazo[1,2-A]pyrazine derivatives as P2X7 modulators” (Glaxo Group Limited, priority 2009, dated 2013).
Counter-ions that a name gives are not always drawn.

Biological target: T1, human recombinant P2X7 receptors (Homo sapiens, UniProt Q99572)
T1 construct: expressed in transfected cells
T1 sequence (Q99572 1-595): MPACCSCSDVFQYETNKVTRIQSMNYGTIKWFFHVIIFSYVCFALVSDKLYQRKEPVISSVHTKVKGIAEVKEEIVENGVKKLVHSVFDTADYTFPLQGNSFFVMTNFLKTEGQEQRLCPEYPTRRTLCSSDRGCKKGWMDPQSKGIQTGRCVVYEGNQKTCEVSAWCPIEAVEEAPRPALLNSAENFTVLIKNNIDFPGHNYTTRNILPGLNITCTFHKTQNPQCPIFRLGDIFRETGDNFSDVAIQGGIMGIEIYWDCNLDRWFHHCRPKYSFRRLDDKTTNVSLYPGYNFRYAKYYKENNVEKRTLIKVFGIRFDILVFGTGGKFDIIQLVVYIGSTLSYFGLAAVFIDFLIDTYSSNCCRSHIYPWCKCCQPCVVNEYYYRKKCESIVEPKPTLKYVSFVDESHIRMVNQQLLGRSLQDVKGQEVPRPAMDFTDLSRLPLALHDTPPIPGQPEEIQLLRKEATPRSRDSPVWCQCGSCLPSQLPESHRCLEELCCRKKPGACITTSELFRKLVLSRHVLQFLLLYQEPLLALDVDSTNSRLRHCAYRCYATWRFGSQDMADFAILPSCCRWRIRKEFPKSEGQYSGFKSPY
Test: Ethidium Accumulation Assay 1
Type: cell-based
Settings: HEK293 cells stably expressing human recombinant P2X7; 1 mM ATP; ethidium 100 μM; read-out: Assay 1 (antagonist pIC50 for blocking ATP responses, ethidium accumulation) (converted)
Method: Studies were performed using NaCl assay buffer of the following composition: 140 mM NaCl, 10 mM HEPES [4-(2-hydroxyethyl)-1-piperazine-1-ethanesulfonic acid], 5 mM N-methyl-D-glucamine, 5.6 mM KCl, 10 mM D-glucose, 0.5 mM CaCl2 (pH 7.4).
Human Embryonic Kidney (HEK) 293 cells, stably expressing human recombinant P2X7 receptors, were grown in poly-D-lysine pretreated 96 well plates for 18-24 hours. […] The cells were washed twice with 350 μl of the assay buffer, before addition of 50 μl of the assay buffer containing the putative P2X7 receptor antagonist compound. (A small amount of dimethyl sulfoxide, for initially dissolving the compound, is optionally used and present in this […] test compound sample.) The cells were then incubated at room temperature (19-21° C.) for 30 min before addition of ATP and ethidium (100 μM final assay concentration). The ATP concentration was chosen to be close to the EC80 for the receptor type and was 1 mM for studies on the human P2X7 receptor. Incubations were continued for 8 or 16 min and were terminated by addition of 25 μl of 1.3M sucrose containing 4 mM of the P2X7 receptor antagonist Reactive Black 5 (Aldrich). […] Antagonist pIC50 values for blocking ATP responses were determined using iterative curve fitting techniques.

IC50 [nM] | SMILES
< 100 | O=C(c1c(Cl)cc(Cl)cc1Cl)N1CCn2c(-c3ccccc3)cnc2C1 [Example 17, 3-Phenyl-7-[(2,4,6-trichlorophenyl)carbonyl]-5,6,7,8-tetrahydroimidazo[1,2-a]pyrazine hydrochloride]
< 100 | O=C(c1cccc(C(F)(F)F)c1Cl)N1CCn2c(nc(C(F)(F)F)c2-c2ccccc2)C1 [Example 26, 7-{[2-Chloro-3-(trifluoromethyl)phenyl]carbonyl}-3-phenyl-2-(trifluoromethyl)-5,6,7,8-tetrahydroimidazo[1,2-a]pyrazine]
< 100 | O=C(c1ccc(F)cc1Cl)N1CCn2c(-c3ccccc3)cnc2C1 [Example 10, 7-[(2-chloro-4-fluorophenyl)carbonyl]-3-phenyl-5,6,7,8-tetrahydroimidazo[1,2-a]pyrazine hydrochloride]
< 501 | O=C(c1cccc(C(F)(F)F)c1Cl)N1CCn2c(-c3ccc(Cl)cc3)cnc2C1 [Example 25, 3-(4-chlorophenyl)-7-{[2-chloro-3-(trifluoromethyl)phenyl]carbonyl}-5,6,7,8-tetrahydroimidazo[1,2-a]pyrazine hydrochloride]
< 100 | O=C(c1ccccc1Cl)N1CCn2c(-c3ccccc3)cnc2C1 [Example 8, 7-[(2-chlorophenyl)carbonyl]-3-phenyl-5,6,7,8-tetrahydroimidazo[1,2-a]pyrazine hydrochloride]
< 10 | O=C(c1cccc(Cl)c1Cl)N1CCn2c(-c3ccccc3)cnc2C1 [Example 9, 7-[(2,3-Dichlorophenyl)carbonyl]-3-phenyl-5,6,7,8-tetrahydroimidazo[1,2-a]pyrazine hydrochloride]
< 10 | O=C(c1cccc(C(F)(F)F)c1Cl)N1CCn2c(-c3ccccn3)cnc2C1 [Example 16, a hydrochloride (n•HCl) salt of 7-{[2-chloro-3-(trifluoromethyl)phenyl]carbonyl}-3-(2-pyridinyl)-5,6,7,8-tetrahydroimidazo[1,2-a]pyrazine]
< 1000 | O=C(c1cccc(Cl)c1Cl)N1CCn2cc(-c3ccccc3)nc2C1 [Example 15, 7-[(2,3-dichlorophenyl)carbonyl]-2-phenyl-5,6,7,8-tetrahydroimidazo[1,2-a]pyrazine hydrochloride]
< 10 | O=C(c1cccc(C(F)(F)F)c1Cl)N1CCn2c(-c3ccccc3)cnc2C1 [Example 4, 7-{[2-chloro-3-(trifluoromethyl)phenyl]carbonyl}-3-phenyl-5,6,7,8-tetrahydroimidazo[1,2-a]pyrazine hydrochloride]
< 100 | O=C(c1cccc(C(F)(F)F)c1Cl)N1CCn2c(-c3ccc(F)cc3)cnc2C1 [Example 22, 7-{[2-Chloro-3-(trifluoromethyl)phenyl]carbonyl}-3-(4-fluorophenyl)-5,6,7,8-tetrahydroimidazo[1,2-a]pyrazine hydrochloride]
< 100 | O=C(c1cccc(C(F)(F)F)c1Cl)N1CCn2c(Cl)cnc2C1 [Example 43, 3-chloro-7-{[2-chloro-3-(trifluoromethyl)phenyl]carbonyl}-5,6,7,8-tetrahydroimidazo[1,2-a]pyrazine]
< 10 | O=C(c1cccc(C(F)(F)F)c1Cl)N1CCn2c(-c3cccnc3)cnc2C1 [Example 23, a hydrochloride salt (n•HCl) of 7-{[2-chloro-3-(trifluoromethyl)phenyl]carbonyl}-3-(3-pyridinyl)-5,6,7,8-tetrahydroimidazo[1,2-a]pyrazine]

The next lines start with the molecule.

SMILES | IC50 [nM]
O=C(c1cccc(C(F)(F)F)c1Cl)N1CCn2c(-c3ccc(F)cn3)cnc2C1 [Example 31, 7-{[2-Chloro-3-(trifluoromethyl)phenyl]carbonyl}-3-(5-fluoro-2-pyridinyl)-5,6,7,8-tetrahydroimidazo[1,2-a]pyrazine] | < 10
O=C(c1cccc(C(F)(F)F)c1Cl)N1CCn2c(nc(Cl)c2Br)C1 [Example 33, 3-Bromo-2-chloro-7-{[2-chloro-3-(trifluoromethyl)phenyl]carbonyl}-5,6,7,8-tetrahydroimidazo[1,2-a]pyrazine] | < 10
O=C(c1cccc(C(F)(F)F)c1Cl)N1CCn2c(nc(Br)c2-c2ccc(F)cc2)C1 [Example 34, 2-Bromo-7-{[2-chloro-3-(trifluoromethyl)phenyl]carbonyl}-3-(4-fluorophenyl)-5,6,7,8-tetrahydroimidazo[1,2-a]pyrazine] | < 100
O=C(c1ccc(F)cc1Cl)N1CCn2c(nc(C(F)(F)F)c2Br)C1 [Example 32, 3-Bromo-7-[(2-chloro-4-fluorophenyl)carbonyl]-2-(trifluoromethyl)-5,6,7,8-tetrahydroimidazo[1,2-a]pyrazine] | < 100
O=C(c1ccc(F)cc1Cl)N1CCn2c(Br)cnc2C1 [Example 30, 3-Bromo-7-[(2-chloro-4-fluorophenyl)carbonyl]-5,6,7,8-tetrahydroimidazo[1,2-a]pyrazine] | < 501
O=C(c1cccc(C(F)(F)F)c1Cl)N1CCn2c(-c3nccs3)cnc2C1 [Example 39, 7-{[2-chloro-3-(trifluoromethyl)phenyl]carbonyl}-3-(1,3-thiazol-2-yl)-5,6,7,8-tetrahydroimidazo[1,2-a]pyrazine] | < 10
CC(C)(C)c1cn2c(n1)CN(C(=O)c1cccc(C(F)(F)F)c1Cl)CC2 [Example 13, 7-{[2-chloro-3-(trifluoromethyl)phenyl]carbonyl}-2-(1,1-dimethylethyl)-5,6,7,8-tetrahydroimidazo[1,2-a]pyrazine hydrochloride] | < 1000
O=C(c1cccc(C(F)(F)F)c1Cl)N1CCn2c(-c3ncccn3)cnc2C1 [Example 41, 7-{[2-chloro-3-(trifluoromethyl)phenyl]carbonyl}-3-(2-pyrimidinyl)-5,6,7,8-tetrahydroimidazo[1,2-a]pyrazine] | < 10
O=C(c1cccc(C(F)(F)F)c1Cl)N1CCn2c(nc(C(F)(F)F)c2-c2ccc(F)cc2)C1 [Example 35, 7-{[2-chloro-3-(trifluoromethyl)phenyl]carbonyl}-3-(4-fluorophenyl)-2-(trifluoromethyl)-5,6,7,8-tetrahydroimidazo[1,2-a]pyrazine] | < 100
O=C(c1cccc(C(F)(F)F)c1Cl)N1CCn2c(I)cnc2C1 [Example 21, 7-{[2-chloro-3-(trifluoromethyl)phenyl]carbonyl}-3-iodo-5,6,7,8-tetrahydroimidazo[1,2-a]pyrazine] | < 10
CCc1cn2c(n1)CN(C(=O)c1cccc(C(F)(F)F)c1Cl)CC2 [Example 6, 7-{[2-chloro-3-(trifluoromethyl)phenyl]carbonyl}-2-ethyl-5,6,7,8-tetrahydroimidazo[1,2-a]pyrazine] | < 100
O=C(c1cccc(C(F)(F)F)c1Cl)N1CCn2c(nc(Cl)c2Cl)C1 [Example 45, 2,3-dichloro-7-{[2-chloro-3-(trifluoromethyl)phenyl]carbonyl}-5,6,7,8-tetrahydroimidazo[1,2-a]pyrazine] | < 10
CCc1cn2c(n1)CN(C(=O)c1ccc(Cl)cc1Cl)CC2 [Example 7, 7-[(2,4-dichlorophenyl)carbonyl]-2-ethyl-5,6,7,8-tetrahydroimidazo[1,2-a]pyrazine] | < 1000
Cc1cn2c(n1)CN(C(=O)c1cccc(C(F)(F)F)c1Cl)CC2 [Example 11, 7-{[2-chloro-3-(trifluoromethyl)phenyl]carbonyl}-2-methyl-5,6,7,8-tetrahydroimidazo[1,2-a]pyrazine] | < 501
